Experimental data reported in ChEMBL document CHEMBL1201862, “PubChem BioAssay data set” (2004).
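Values below derive from 48-hour exposures of cells grown in 96-well plates, with endpoints linearly interpolated between the two concentrations bracketing the appropriate inhibition level. GI50 marks 50% less growth.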 Active and inactive are the calls of the source. Cut-off read from the data, not from the text of the source: active = GI50 up to about 1.1 µM and inactive = higher.

Experiments:
Assay in all cases: inhibition of tumour cell growth, NCI panel, 48 h
KM12 = test system: KM12
EKVX = test system: EKVX
HCT-15 = test system: HCT-15
RXF 393 = test system: RXF 393
HL-60 = test system: HL-60
UACC-257 = test system: UACC-257
BT-549 = test system: BT-549
NCI-H226 = test system: NCI-H226
ACHN = test system: ACHN
A549 = test system: A549
CCRF-CEM = test system: CCRF-CEM
IGROV-1 = test system: IGROV-1
SF-539 = test system: SF-539
786-0 = test system: 786-0
DU-145 = test system: DU-145
TK-10 = test system: TK-10
HCT-116 = test system: HCT-116
LOX IMVI = test system: LOX IMVI

SMILES	GI50 (KM12)	GI50 (EKVX)	GI50 (HCT-15)	GI50 (RXF 393)	GI50 (HL-60)	GI50 (UACC-257)	GI50 (BT-549)	GI50 (NCI-H226)	GI50 (ACHN)	GI50 (A549)	GI50 (CCRF-CEM)	GI50 (IGROV-1)	GI50 (SF-539)	GI50 (786-0)	GI50 (DU-145)	GI50 (TK-10)	GI50 (HCT-116)	GI50 (LOX IMVI)
Cc1c2c(c(C)n1-c1ccccc1)C(=O)N(CCSC(=N)N)C2=O	> 100 µM (inactive)	9.75 µM (inactive)	> 100 µM	40.2 µM (inactive)	> 100 µM (inactive)	28.8 µM (inactive)	> 100 µM (inactive)	> 100 µM (inactive)	32.6 µM (inactive)	> 100 µM (inactive)	> 100 µM (inactive)	> 100 µM (inactive)	> 100 µM (inactive)	> 100 µM (inactive)	> 100 µM (inactive)	> 100 µM (inactive)	> 100 µM (inactive)	–
CC(C)C1(NC(=O)C2CC3c4cccc5[nH]cc(c45)CC3N(C)C2)OC2(O)C3CCCN3C(=O)C(Cc3ccccc3)N2C1=O (configuration not stated)	15.2 µM (inactive)	30.3 µM (inactive)	23.6 µM	–	6.62 µM (inactive)	48.1 µM (inactive)	55 µM (inactive)	–	21.4 µM (inactive)	7.21 µM (inactive)	5.9 µM (inactive)	36.4 µM (inactive)	15.4 µM (inactive)	36.7 µM (inactive)	51.2 µM (inactive)	30.6 µM (inactive)	16.9 µM (inactive)	12.1 µM (inactive)
O=C(O)Cc1ccc(-n2nnc3c(=O)[nH][nH]c(=O)c32)cc1	> 100 µM (inactive)	> 100 µM (inactive)	> 100 µM	–	> 100 µM (inactive)	> 100 µM (inactive)	> 100 µM (inactive)	–	> 100 µM (inactive)	> 100 µM (inactive)	> 100 µM (inactive)	–	–	> 100 µM (inactive)	> 100 µM (inactive)	> 100 µM (inactive)	> 100 µM (inactive)	> 100 µM (inactive)
CN(C)c1nc2oc(-c3ccccc3)c(-c3ccccc3)c2c2nnnn12	> 100 µM (inactive)	> 100 µM (inactive)	> 100 µM	> 100 µM (inactive)	19.8 µM (inactive)	> 100 µM (inactive)	–	> 100 µM (inactive)	> 100 µM (inactive)	> 100 µM (inactive)	> 100 µM (inactive)	> 100 µM (inactive)	> 100 µM (inactive)	> 100 µM (inactive)	> 100 µM (inactive)	> 100 µM (inactive)	> 100 µM (inactive)	> 100 µM (inactive)
O=c1c2cc([N+](=O)[O-])ccc2[nH]n1Cc1ccccc1Cl	55.7 µM (inactive)	30.2 µM (inactive)	> 100 µM	35.2 µM (inactive)	30.8 µM (inactive)	98.6 µM (inactive)	–	74.1 µM (inactive)	46.1 µM (inactive)	42.1 µM (inactive)	85.5 µM (inactive)	80.2 µM (inactive)	98.4 µM (inactive)	64.9 µM (inactive)	47 µM (inactive)	18.2 µM (inactive)	55.7 µM (inactive)	> 100 µM (inactive)
CCO/C(=N/S(=O)(=O)C(F)(F)F)N(C(C)C)C(C)C	> 100 µM (inactive)	> 100 µM (inactive)	> 100 µM	> 100 µM (inactive)	> 100 µM (inactive)	> 100 µM (inactive)	> 100 µM (inactive)	–	> 100 µM (inactive)	> 100 µM (inactive)	> 100 µM (inactive)	> 100 µM (inactive)	47 µM (inactive)	> 100 µM (inactive)	> 100 µM (inactive)	> 100 µM (inactive)	> 100 µM (inactive)	> 100 µM (inactive)
COc1cc(Br)c(CC2C3=C(CCN2C(=O)C2CCC2)CC2(CC3)OCCO2)cc1O (configuration not stated)	50.6 µM (inactive)	34.2 µM (inactive)	27.9 µM	4.84 µM (inactive)	46.7 µM (inactive)	32.5 µM (inactive)	–	> 100 µM (inactive)	98.4 µM (inactive)	57.9 µM (inactive)	52.6 µM (inactive)	58.7 µM (inactive)	> 100 µM (inactive)	89.9 µM (inactive)	> 100 µM (inactive)	29.2 µM (inactive)	72.8 µM (inactive)	> 100 µM (inactive)
CCCCCC[C@H]([C@H](C)O)n1cnc2c(N)ncnc21	> 100 µM (inactive)	> 100 µM (inactive)	> 100 µM	> 100 µM (inactive)	50.9 µM (inactive)	> 100 µM (inactive)	–	> 100 µM (inactive)	61.5 µM (inactive)	> 100 µM (inactive)	> 100 µM (inactive)	> 100 µM (inactive)	57.4 µM (inactive)	> 100 µM (inactive)	> 100 µM (inactive)	> 100 µM (inactive)	> 100 µM (inactive)	> 100 µM (inactive)
